Measurements as given in patent US9492552B2, “Injectable aqueous pharmaceutical compositions comprising a cyclodextrin, a hydrophobic drug, a co-solvent, and a preservative” (JUROX PTY LTD, priority 2011, dated 2016).

Assay: Precipitation of alfaxalone from alfaxalone/2-hydroxypropyl-β-cyclodextrin complex solution on adding preservative without co-solvent
Assay type: physicochemical
Details: upwards to 1% w/v (typical content); no co-solvent

OCc1ccccc1 [benzyl alcohol]
benzyl alcohol content at which significant precipitation occurs (titration): ≥ 0.2 % w/v
